The test system of this experiment is MV-4-11 cells. In words: Gene expression microarray analysis (Affymetrix PrimeView) and GSEA. Conditions: ProbeSet 11725902_s_at; LIST D. The class given is cell-based, human. On the set-up: RFU PODN (11730768_x_at) / Fold change /veh PODN (11730768_x_at) / RFU LINC00158 (11744669_a_at) / Fold change /veh LINC00158 (11744669_a_at) / RFU DUSP10 (11751237_a_at) / Fold change /veh DUSP10 (11751237_a_at) / RFU ID3 (11757404_x_at) / Fold change /veh ID3 (11757404_x_at) / RFU PLEKHG5 (11737974_s_at) / Fold change /veh PLEKHG5 (11737974_s_at) / RFU LRRC4B (11730491_at) / Fold change /veh LRRC4B (11730491_at) / RFU GIMAP4 (11747438_a_at) / Fold change /veh GIMAP4 (11747438_a_at) / RFU KRT8 (11758183_x_at) / Fold change /veh KRT8 (11758183_x_at) / RFU CNN1 (11734310_a_at) / Fold change /veh CNN1 (11734310_a_at) / RFU VPS37D (11726825_at) / Fold change /veh VPS37D (11726825_at) / RFU C10orf10 (11716522_x_at) / Fold change /veh C10orf10 (11716522_x_at) / RFU KIR2DL2 /// KIR2DL4 /// KIR2DL5A /// KIR2DL5B /// KIR2DS1 /// KIR2DS2 /// KIR2DS3 /// KIR2DS4 /// KIR3DL3 /// KIR3DL3 /// KIR3DS1 (11738374_at) / Fold change /veh KIR2DL2 /// KIR2DL4 /// KIR2DL5A /// KIR2DL5B /// KIR2DS1 /// KIR2DS2 /// KIR2DS3 /// KIR2DS4 /// KIR3DL3 /// KIR3DL3 /// KIR3DS1 (11738374_at) / RFU C1QL1 (11718748_at) / Fold change /veh C1QL1 (11718748_at) / RFU TMPRSS4 (11747572_a_at) / Fold change /veh TMPRSS4 (11747572_a_at) / RFU HAMP (11756126_x_at) / Fold change /veh HAMP (11756126_x_at) / RFU RNFT2 (11725882_a_at) / Fold change /veh RNFT2 (11725882_a_at) / RFU NR4A2 (11747474_a_at) / Fold change /veh NR4A2 (11747474_a_at) / RFU ABCC12 (11746883_a_at) / Fold change /veh ABCC12 (11746883_a_at) / RFU TMEM136 (11760407_x_at) / Fold change /veh TMEM136 (11760407_x_at) / RFU CLDN22 /// WWC2 (11732394_at) / Fold change /veh CLDN22 /// WWC2 (11732394_at) / RFU HLA-DPB1 (11760878_x_at) / Fold change /veh HLA-DPB1 (11760878_x_at) / RFU SPINT1 (11716480_a_at) / Fold change /veh SPINT1 (11716480_a_at) / RFU GAP43 (11754022_s_at) / Fold change /veh GAP43 (11754022_s_at) / RFU A4GNT (11735810_at) / Fold change /veh A4GNT (11735810_at) / RFU PRB3 (11715151_x_at) / Fold change /veh PRB3 (11715151_x_at) / RFU TUBB4B (11761932_at) / Fold change /veh TUBB4B (11761932_at) / RFU CAPN14 (11732068_a_at) / Fold change /veh CAPN14 (11732068_a_at) / RFU TMCC2 (11721928_a_at) / Fold change /veh TMCC2 (11721928_a_at) / RFU IRGQ (11745062_a_at) / Fold change /veh IRGQ (11745062_a_at) / RFU FAM174B (11720279_a_at) / Fold change /veh FAM174B (11720279_a_at) / RFU TMPRSS4 (11748680_a_at) / Fold change /veh TMPRSS4 (11748680_a_at) / RFU FAM212B (11763350_a_at) / Fold change /veh FAM212B (11763350_a_at) / RFU PLEKHG5 (11743358_a_at) / Fold change /veh PLEKHG5 (11743358_a_at) / RFU ZSCAN30 (11745921_a_at) / Fold change /veh ZSCAN30 (11745921_a_at) / RFU CMKLR1 (11741424_a_at) / Fold change /veh CMKLR1 (11741424_a_at) / RFU LOC101060620 /// MAPK8IP1 (11723275_at) / Fold change /veh LOC101060620 /// MAPK8IP1 (11723275_at) / RFU SPTSSB (11747773_x_at) / Fold change /veh SPTSSB (11747773_x_at) / RFU PRSS12 (11739890_at) / Fold change /veh PRSS12 (11739890_at) / RFU BIN1 (11741810_x_at) / Fold change /veh BIN1 (11741810_x_at) / RFU WNT11 (11732464_a_at) / Fold change /veh WNT11 (11732464_a_at) / RFU C10orf10 (11716521_a_at) / Fold change /veh C10orf10 (11716521_a_at) / RFU C5orf56 (11738089_at) / Fold change /veh C5orf56 (11738089_at) / RFU CYB561 (11721691_x_at) / Fold change /veh CYB561 (11721691_x_at) / RFU ANKRD19P (11752326_a_at) / Fold change /veh ANKRD19P (11752326_a_at) / RFU OR2T12 /// OR2T33 /// OR2T8 (11738714_s_at) / Fold change /veh OR2T12 /// OR2T33 /// OR2T8 (11738714_s_at) / RFU VCAN (11748164_a_at) / Fold change /veh VCAN (11748164_a_at) / RFU JSRP1 (11732532_at) / Fold change /veh JSRP1 (11732532_at) / RFU KRTAP10-11 (11738290_x_at) / Fold change /veh KRTAP10-11 (11738290_x_at) / RFU MYO3A (11730013_a_at) / Fold change /veh MYO3A (11730013_a_at) / RFU EBF3 (11725865_a_at) / Fold change /veh EBF3 (11725865_a_at) / RFU CAMK2N1 (11719241_x_at) / Fold change /veh CAMK2N1 (11719241_x_at) / RFU C5orf56 (11738088_a_at) / Fold change /veh C5orf56 (11738088_a_at) / RFU OLFML3 (11715873_a_at) / Fold change /veh OLFML3 (11715873_a_at) / RFU LOC100653217 /// NTM (11731650_a_at) / Fold change /veh LOC100653217 /// NTM (11731650_a_at) / RFU MAPK11 (11762145_a_at) / Fold change /veh MAPK11 (11762145_a_at) / RFU FIZ1 (11724087_x_at) / Fold change /veh FIZ1 (11724087_x_at) / RFU OASL (11726364_x_at) / Fold change /veh OASL (11726364_x_at) / RFU SOX15 (11748057_x_at) / Fold change /veh SOX15 (11748057_x_at) / RFU CD79A (11719716_a_at) / Fold change /veh CD79A (11719716_a_at) / RFU HIST1H1D (11736915_at) / Fold change /veh HIST1H1D (11736915_at) / RFU CASKIN2 (11723855_a_at) / Fold change /veh CASKIN2 (11723855_a_at) / RFU LOC730098 (11760151_x_at) / Fold change /veh LOC730098 (11760151_x_at) / RFU OR4N2 (11742367_at) / Fold change /veh OR4N2 (11742367_at) / RFU PRRT2 (11749266_a_at) / Fold change /veh PRRT2 (11749266_a_at) / RFU SNX32 (11753110_a_at) / Fold change /veh SNX32 (11753110_a_at) / RFU CDHR5 (11726645_a_at) / Fold change /veh CDHR5 (11726645_a_at) / RFU RCAN1 (11760418_a_at) / Fold change /veh RCAN1 (11760418_a_at) / RFU FAM167A (11723789_a_at) / Fold change /veh FAM167A (11723789_a_at) / RFU FAM26E (11764081_at) / Fold change /veh FAM26E (11764081_at) / RFU ISYNA1 (11749810_s_at) / Fold change /veh ISYNA1 (11749810_s_at) / RFU ACY1 (11761880_at) / Fold change /veh ACY1 (11761880_at) / RFU 11764098_at / Fold change /veh 11764098_at / RFU SAMD14 (11745864_x_at) / Fold change /veh SAMD14 (11745864_x_at) / RFU NPB (11741838_a_at) / Fold change /veh NPB (11741838_a_at) / RFU TMPRSS6 (11731388_a_at) / Fold change /veh TMPRSS6 (11731388_a_at) / RFU KRTAP10-2 (11738614_at) / Fold change /veh KRTAP10-2 (11738614_at) / RFU ARHGAP8 /// PRR5-ARHGAP8 (11727945_x_at) / Fold change /veh ARHGAP8 /// PRR5-ARHGAP8 (11727945_x_at) / RFU KRTAP5-7 /// NADSYN1 (11734609_at) / Fold change /veh KRTAP5-7 /// NADSYN1 (11734609_at) / RFU RASL12 (11751679_a_at) / Fold change /veh RASL12 (11751679_a_at) / RFU CDKN2B (11736163_a_at) / Fold change /veh CDKN2B (11736163_a_at) / RFU PRF1 (11729649_at) / Fold change /veh PRF1 (11729649_at) / RFU, ZNF638 /// ZNF638-IT1 / Fold change vs veh, ZNF638 /// ZNF638-IT1 / RFU, PANK3 / Fold change vs veh, PANK3 / RFU, SH3YL1 / Fold change vs veh, SH3YL1 / RFU, ZEB2 / Fold change vs veh, ZEB2 / RFU, NRIP1 / Fold change vs veh, NRIP1 / RFU, PTTG1IP / Fold change vs veh, PTTG1IP / RFU, CAPN2 / Fold change vs veh, CAPN2 / RFU, MED14 / Fold change vs veh, MED14 / RFU, SNORA58 / Fold change vs veh, SNORA58 / RFU, C1orf63 / Fold change vs veh, C1orf63 / RFU, LRRFIP1 / Fold change vs veh, LRRFIP1 / RFU, NDUFAF7 / Fold change vs veh, NDUFAF7 / RFU, SLC12A2 / Fold change vs veh, SLC12A2 / RFU, IBTK / Fold change vs veh, IBTK / RFU, ESF1 / Fold change vs veh, ESF1 / Fold change vs veh, TMEM50B / RFU, TAOK1 / Fold change vs veh, TAOK1 / RFU, ACBD3 / Fold change vs veh, ACBD3 / RFU, TMA16 / Fold change vs veh, TMA16 / RFU, RWDD3 / Fold change vs veh, RWDD3 / RFU, BCAT1 / Fold change vs veh, BCAT1 / RFU, EDEM3 / Fold change vs veh, EDEM3 / RFU, TMEM33 / Fold change vs veh, TMEM33 / RFU, WDR75 / Fold change vs veh, WDR75 / RFU, AHCTF1 / Fold change vs veh, AHCTF1 / RFU, TFRC / Fold change vs veh, TFRC / RFU, ZDHHC17 / Fold change vs veh, ZDHHC17 / RFU, NOM1 / Fold change vs veh, NOM1 / RFU, ARL8B / Fold change vs veh, ARL8B / RFU, ZBTB11 / Fold change vs veh, ZBTB11 / RFU, TAMM41 / Fold change vs veh, TAMM41 / RFU, KIAA1704 /// LOC100996395 / Fold change vs veh, KIAA1704 /// LOC100996395 / RFU, ING1 / Fold change vs veh, ING1 / RFU, TRMT61B / Fold change vs veh, TRMT61B / RFU, FUBP3 / Fold change vs veh, FUBP3 / RFU, TP53 / Fold change vs veh, TP53 / RFU, TNKS2 / Fold change vs veh, TNKS2 / RFU, ZFP14 / Fold change vs veh, ZFP14 / RFU, ACTR2 / Fold change vs veh, ACTR2 / RFU, PPP3R1 / Fold change vs veh, PPP3R1 / RFU, PIK3R1 / Fold change vs veh, PIK3R1 / RFU, HNRNPA1 / Fold change vs veh, HNRNPA1 / RFU, RNF170 / Fold change vs veh, RNF170 / RFU, ZNF28 / Fold change vs veh, ZNF28 / RFU, RNGTT / Fold change vs veh, RNGTT / RFU, OGT / Fold change vs veh, OGT / RFU, BRD1 / Fold change vs veh, BRD1 / RFU, MARS / Fold change vs veh, MARS / RFU, ZNF655 / Fold change vs veh, ZNF655 / RFU, FAHD1 / Fold change vs veh, FAHD1 / RFU, BDP1 / Fold change vs veh, BDP1 / RFU, LRRCC1 / Fold change vs veh, LRRCC1 / RFU, ARID1A / Fold change vs veh, ARID1A / RFU, ZNF146 / Fold change vs veh, ZNF146 / RFU, ZNF330 / Fold change vs veh, ZNF330 / RFU, GPN3 / Fold change vs veh, GPN3 / RFU, C9orf123 / Fold change vs veh, C9orf123 / RFU, N4BP2L2 / Fold change vs veh, N4BP2L2 / RFU, ARFIP1 / Fold change vs veh, ARFIP1 / RFU, FAM179B / Fold change vs veh, FAM179B / RFU, BCL10 / Fold change vs veh, BCL10 / RFU, UHRF1BP1L / Fold change vs veh, UHRF1BP1L / RFU, BET1 / Fold change vs veh, BET1 / RFU, CNOT2 / Fold change vs veh, CNOT2 / RFU, ZNF268 / Fold change vs veh, ZNF268 / Fold change vs veh, ZNF507 / RFU, DGCR2 / Fold change vs veh, DGCR2 / RFU, WDSUB1 / Fold change vs veh, WDSUB1 / Fold change vs veh, HSP90B1 /// MIR3652 / RFU, ADSS / Fold change vs veh, ADSS / RFU, GK / Fold change vs veh, GK / RFU, ZNF148 / Fold change vs veh, ZNF148 / RFU, TAF9 / Fold change vs veh, TAF9 / RFU, SLC1A5 / Fold change vs veh, SLC1A5 / RFU, SLMO2 / Fold change vs veh, SLMO2 / RFU, ABCC4 / Fold change vs veh, ABCC4 / RFU, LOC101060439 /// RAP1B / Fold change vs veh, LOC101060439 /// RAP1B / RFU, RFX7 / Fold change vs veh, RFX7 / RFU, GTPBP10 / Fold change vs veh, GTPBP10 / RFU, CNEP1R1 / Fold change vs veh, CNEP1R1 / RFU, BIVM-ERCC5 /// ERCC5 / Fold change vs veh, BIVM-ERCC5 /// ERCC5 / RFU, ILF3 / Fold change vs veh, ILF3 / RFU 11762660_at / Fold change /veh 11762660_at / RFU VCAN (11757783_s_at) / Fold change /veh VCAN (11757783_s_at) / RFU DDX43 (11728927_at) / Fold change /veh DDX43 (11728927_at) / RFU KRT8 (11758188_x_at) / Fold change /veh KRT8 (11758188_x_at) / RFU NKD1 (11759106_at) / Fold change /veh NKD1 (11759106_at) / RFU SRD5A1 (11742802_a_at) / Fold change /veh SRD5A1 (11742802_a_at) / RFU TPSAB1 /// TPSB2 (11721975_s_at) / Fold change /veh TPSAB1 /// TPSB2 (11721975_s_at) / RFU GSTM3 (11746129_a_at) / Fold change /veh GSTM3 (11746129_a_at) / RFU IL23R (11737362_x_at) / Fold change /veh IL23R (11737362_x_at) / RFU TMEM51 (11727254_a_at) / Fold change /veh TMEM51 (11727254_a_at) / RFU PIWIL2 (11732686_x_at) / Fold change /veh PIWIL2 (11732686_x_at) / RFU ORM1 (11744905_x_at) / Fold change /veh ORM1 (11744905_x_at) / RFU CCDC152 (11743942_at) / Fold change /veh CCDC152 (11743942_at) / RFU ECM1 (11717891_a_at) / Fold change /veh ECM1 (11717891_a_at) / RFU IL23R (11748794_a_at) / Fold change /veh IL23R (11748794_a_at) / RFU TNFAIP8L3 (11732012_x_at) / Fold change /veh TNFAIP8L3 (11732012_x_at) / RFU MBOAT4 (11741988_at) / Fold change /veh MBOAT4 (11741988_at) / RFU 11764193_at / Fold change /veh 11764193_at / RFU TMEM53 (11763286_at) / Fold change /veh TMEM53 (11763286_at) / RFU MAGEB2 (11727129_at) / Fold change /veh MAGEB2 (11727129_at) / RFU TMEM200A (11744735_a_at) / Fold change /veh TMEM200A (11744735_a_at) / RFU CCDC152 (11751479_a_at) / Fold change /veh CCDC152 (11751479_a_at) / RFU FAM211A (11726209_a_at) / Fold change /veh FAM211A (11726209_a_at) / RFU RGS16 (11746705_a_at) / Fold change /veh RGS16 (11746705_a_at) / RFU VCAN (11755009_s_at) / Fold change /veh VCAN (11755009_s_at) / RFU RHOB (11743442_s_at) / Fold change /veh RHOB (11743442_s_at) / RFU RGS16 (11720943_a_at) / Fold change /veh RGS16 (11720943_a_at) / RFU RGS16 (11720944_at) / Fold change /veh RGS16 (11720944_at) / RFU, VPS4B / Fold change vs veh, VPS4B / RFU, CREB1 / Fold change vs veh, CREB1 / RFU, DNAJC13 / Fold change vs veh, DNAJC13 / RFU, GNAQ / Fold change vs veh, GNAQ / RFU, CDK5R1 / Fold change vs veh, CDK5R1 / RFU, ZRANB3 / Fold change vs veh, ZRANB3 / RFU, CUL4A / Fold change vs veh, CUL4A / RFU, CCNY / Fold change vs veh, CCNY / RFU, UFL1 / Fold change vs veh, UFL1 / RFU, COG3 / Fold change vs veh, COG3 / RFU, DIAPH2 / Fold change vs veh, DIAPH2 / RFU, SKA2 / Fold change vs veh, SKA2 / RFU, AFF3 / Fold change vs veh, AFF3 / RFU, LMF1 / Fold change vs veh, LMF1 / RFU, IPO11 / Fold change vs veh, IPO11 / RFU, DFFB / Fold change vs veh, DFFB / RFU, FOXP1 / Fold change vs veh, FOXP1 / RFU, CARD8 / Fold change vs veh, CARD8 / RFU, STRN3 / Fold change vs veh, STRN3 / RFU, ADK / Fold change vs veh, ADK / RFU, RASSF2 / Fold change vs veh, RASSF2 / RFU, WIPF1 / Fold change vs veh, WIPF1 / RFU, LARP1B / Fold change vs veh, LARP1B / RFU, RASA1 / Fold change vs veh, RASA1 / RFU, RB1 / Fold change vs veh, RB1 / RFU, PPFIA1 / Fold change vs veh, PPFIA1 / RFU, MAT2A / Fold change vs veh, MAT2A / RFU, CCT5 / Fold change vs veh, CCT5 / RFU, WDR92 / Fold change vs veh, WDR92 / RFU, CUX1 / Fold change vs veh, CUX1 / RFU, TTC7A / Fold change vs veh, TTC7A / RFU, TMEM135 / Fold change vs veh, TMEM135 / RFU, DEPTOR / Fold change vs veh, DEPTOR / RFU, CPM / Fold change vs veh, CPM / RFU, DNAJB6 / Fold change vs veh, DNAJB6 / RFU, CACNA2D3 / Fold change vs veh, CACNA2D3 / RFU, DTX4 / Fold change vs veh, DTX4 / RFU, TFCP2 / Fold change vs veh, TFCP2 / RFU, GMCL1 /// GMCL1P1 / Fold change vs veh, GMCL1 /// GMCL1P1 / RFU, AEBP2 / Fold change vs veh, AEBP2 / RFU, SNHG1 /// SNORD22 /// SNORD25 /// SNORD26 /// SNORD27 /// SNORD28 /// SNORD29 /// SNORD31 / Fold change vs veh, SNHG1 /// SNORD22 /// SNORD25 /// SNORD26 /// SNORD27 /// SNORD28 /// SNORD29 /// SNORD31 / Fold change (Aza/veh), C12orf56 (ProbeSet 11735607_a_at) / Fold change (ACY-1035/veh), C12orf56 (ProbeSet 11735607_a_at) / Fold change (Aza/veh), FGFR1OP (ProbeSet 11751329_s_at) / Fold change (ACY-1035/veh), FGFR1OP (ProbeSet 11751329_s_at) / Fold change (Aza/veh), VPS36 (ProbeSet 11739960_a_at) / Fold change (ACY-1035/veh), VPS36 (ProbeSet 11739960_a_at) / RFU SYPL1 (11715823_x_at) / Fold change /veh SYPL1 (11715823_x_at) / RFU IGFBP7 (11715501_s_at) / Fold change /veh IGFBP7 (11715501_s_at) / RFU REEP3 (11722064_at) / Fold change /veh REEP3 (11722064_at) / RFU IGLL1 (11728026_x_at) / Fold change /veh IGLL1 (11728026_x_at): dose or concentration left out as unconfirmed.

Molecules are shown by their SMILES.

In the case of `Nc1ccc(-c2cccs2)cc1NC(=O)c1ccc2c(c1)cc(C1CC1)n2CCN1CCOCC1` [ACY-1035], the “RFU, TMEM135” value came to 107.94 RFU.

The values above are taken from PMC5218480 (PLoS ONE, 2017).
